Results from patent US20220194951A1, “DIHYDROPYRIMIDINE COMPOUND AND APPLICATION THEREOF AS DRUG” (SUNSHINE LAKE PHARMA CO., LTD., priority 2019, published 2022).

Assays:
[1] = tested on: HBV; assay: Inhibition of HBV DNA replication in HepAD38 cells (qPCR method); assay type: cell-based; settings: Hepatitis B virus, secreted virus DNA by qPCR
Text: Test 1: Evaluation of HepAD38 Cells on the Compound's Inhibitory Activity of HBV DNA Replication (qPCR Method)
HBV Cell Strain and Culture Conditions
HepAD38: Ladner et al. (Ladner, Otto et al. 1997) ligated the tetracycline-sensitive cytomegalovirus CMV promoter to the PBR322 plasmid and ligated it with the ayw subtype HBV DNA into the ptetHBV plasmid, and HepG2 cells were transfected to obtain the HepAD38 cell strain. Due to the destruction of the pre-C region gene, the yield of HBV DNA was about 11 times higher than that of HepG2.2.15 cells. Tetracycline could be used to regulate HBV replication, and the time required for culture was only half of that of HepG2.2.15 cells. It was suitable for studying the HBV replication process and replication intermediates and screening of anti-HBV drugs. HepAD38 was cultured in DMEM/F-12K medium containing 10% FBS and 1% double antibody (it also contained Tetracycline at a final concentration of 300 ng/ml and G418 at a final concentration of 400 μg/ml).
The virus particle DNA secreted by HepAD38 cells could be quantified by qPCR method, and thus the influence of the compound on virus replication could be detected.
(§1) Test of Anti HBV Activity In Vitro
After resuscitating the HepAD38 with a small number of passages, after the cells were in good condition, Tetracycline (final concentration of 300 ng/ml) and G418 (final concentration of 400 μg/ml) were added into the medium. […] After the cells were full, they were digested, counted, and diluted with DMEM/F-12K medium containing 10% FBS (containing Tetracycline at a final concentration of 300 ng/ml and G418 at a final concentration of 400 μg/ml, 1% double antibody) to a cell suspension of concentration of 2×10^5/mL. The cell suspension was seeded in a 96-well plate (the whole plate was covered) at 100 μL per well, and incubated at 37° C. in a constant temperature incubator with 5% CO2 for 24 h.
Compound preparation and cell treatment in antiviral experiments: the compound was dissolved with DMSO to 20 mM. Furthermore, the compound was diluted with DMSO to 800 μM, and then 8 dilutions at 4 fold were performed, the highest concentration was 800 μM. 1 μL of serially diluted compound was added to each well of the above-mentioned cell plate. The highest final concentration of the experiment was 4 μM (200 fold dilution). TDF (tenofovir disoproxil fumarate, Selleck, Cat S1400) was used as a positive control compound with a highest concentration of 4 μM. 1 μL of DMSO was added to the negative control wells to a final concentration of 0.5%.
The one-step hepatitis B virus nucleic acid quantitative determination kit for 48 people (PCR-fluorescent probe method) of Shengxiang Biotechnology was used for QPCR. 2.5 μL of supernatant was absorbed for Q-PCR, and the kit reagents were vortexed and mixed well after the reagents were melted before use. After centrifugation, the enzyme mixture was placed on ice for later use, and it was ensured that the subsequent steps were completed on the ice. 2.5 μL of sample release agent and 2.5 μL of test sample supernatant (experimental group, control group, standard curve group) were added to each well of the Q-PCR plate. After QPCR reaction, the copy number of virus DNA in each well was obtained. Graphpad Prism 5 software was used to process the concentration-virus copy number, and the EC50 of the compound against virus replication was calculated through a four-parameter nonlinear regression model.

[2] = PK test on cynomolgus monkeys; assay type: in vivo; settings: male, cynomolgus monkey, plasma; for bioavailability: read-out: F (absolute bioavailability)
Experimental: (4) PK Test on Cynomolgus Monkeys:
The PK test method of the compound in vivo of cynomolgus monkeys (purchased from Guangdong Chunsheng Biotechnology Development Co., Ltd., weight 3-6 kg, male, ages of 4-6 years, 3 per oral group, 3 per intravenous injection group):
The cynomolgus monkeys were administered intragastrically with the test compound at doses of 2.5 mg/kg or 5 mg/kg or administered intravenously with the test compound at doses of 0.5 mg/kg or 1 mg/kg.
Blood samples were taken at 0.083, 0.25, 0.5, 1, 2, 4, 6, 8 and 24 hours from vein after the administration, and collected in anticoagulation tube with EDTA-K2. After liquid-liquid extraction, the plasma sample was quantitatively analyzed on a triple quadrupole tandem mass spectrometer using multiple reactive ion monitoring (MRM). Pharmacokinetic parameters were calculated using a noncompartmental method by WinNonLin 6.3 software.

[3] = tested on: HBV; assay: Inhibition of HBV DNA replication in HepG2.2.15 cells (qPCR); assay type: cell-based; settings: Hepatitis B virus, secreted virus DNA by qPCR
Experimental: Test 2: Evaluation of HepG2.2.15 Cells on the Compound's Inhibitory Activity of HBV DNA Replication
HBV Cell Line and Culture Conditions
The chromosomes of HepG2.2.15 cells (SELLS, PNAS, 1987 and SELLS, JV, 1988) integrated a complete HBV genome and stably expressed viral RNA and viral proteins. HepG2.2.15 cells could secrete mature hepatitis B virus particles, HBsAg and HBeAg into the culture medium. HepG2.2.15 cells were cultured in a DMEM medium containing 10% fetal bovine serum, 100 U/mL penicillin, 100 U/mL streptomycin, 1% non-essential amino acids, 1 mM sodium pyruvate and 300 µg/mL G418.
The virus particle DNA secreted by HepG2.2.15 cells could be quantified by qPCR method, and the influence of the compound on virus replication could be detected.
as §1
8,000 HepG 2.2.15 cells per well were seeded into a 96-well cell culture plate, the plate was cultured at 37° C. and 5% CO2 for 3 days until the cells grew to full wells. Old liquid medium was discard and replaced with 200 μL of new medium (5% FBS) on day 0. […]
Primers: HBV-For-202, […]; HBV-Rev-315, […]. […] Graphpad Prism 5 software was used to process the concentration-virus copy number, and the EC50 of the compound against virus replication was calculated through a four-parameter nonlinear regression model.

COC(=O)C1=C(CN2CCN3C(=O)N(c4ccc(C(=O)O)cc4F)C[C@@H]3C2)NC(c2nccs2)=N[C@H]1c1ccc(F)cc1Cl [Example 1] showed an EC50 [1] of 20 nM.
Work on CCOC(=O)C1=C(CN2CCN3C(=O)N(c4ccc(C(=O)O)cc4F)C[C@@H]3C2)NC(c2nccs2)=N[C@H]1c1ccc(Cl)cc1Cl [Example 7] yielded an EC50 [1] of 16 nM.
COC(=O)C1=C(CN2CCN3C(=O)N(c4ccc(C(=O)O)cc4)C[C@@H]3C2)NC(c2nccs2)=N[C@H]1c1ccc(F)cc1Cl [Control compound, 4-((S)-7-(((R)-6-(2-chloro-4-fluorophenyl)-5-(methoxycarbonyl)-2-(thiazol-2-yl)-3,6-dihydropyrimidin-4-yl)methyl)-3-oxohexahydroimidazo[1,5-a]pyrazine-2(3H)-yl)benzoic acid, reference compound] showed an AUC(0-t) ([2]; iv, 0.5 mg/kg) of 720 ng·h/mL, a Tmax ([2]; iv, 0.5 mg/kg) of 4.98 min and an AUC(0-t) ([2]; po, 2.5 mg/kg) of 647 ng·h/mL. For the same compound, the Tmax ([2]; po, 2.5 mg/kg) was 90 min and the bioavailability ([2]; po, 2.5 mg/kg) was 23.6%.
CCOC(=O)C1=C(CN2CCN3C(=O)N(c4ccc(C(=O)O)c(F)c4)C[C@@H]3C2)NC(c2nccs2)=N[C@H]1c1ccc(Cl)cc1Cl [Example 8] gave an EC50 [1] of 13 nM.
With CCOC(=O)C1=C(CN2CCN3C(=O)N(c4ccc(C(=O)O)c(F)c4)C[C@@H]3C2)NC(c2nccs2)=N[C@H]1c1ccc(F)cc1Cl [Example 6] the EC50 [1] was 15 nM.
CCOC(=O)C1=C(CN2CCN3C(=O)N(c4ccc(C(=O)O)cc4F)C[C@@H]3C2)NC(c2nccs2)=N[C@H]1c1ccc(F)cc1Br [Example 3] showed an EC50 [1] of 31 nM.
CCOC(=O)C1=C(CN2CCN3C(=O)N(c4ccc(C(=O)O)c(F)c4)C[C@@H]3C2)NC(c2nccs2)=N[C@H]1c1ccc(F)cc1Br [Example 4] gave an EC50 [1] of 16 nM.
Work on COC(=O)C1=C(CN2CCN3C(=O)N(c4ccc(C(=O)O)c(F)c4)C[C@@H]3C2)NC(c2nccs2)=N[C@H]1c1ccc(F)cc1Cl [Example 2] yielded an EC50 [3] of 4 nM, an AUC(0-t) ([2]; iv, 0.5 mg/kg) of 1020 ng·h/mL and a Tmax ([2]; iv, 0.5 mg/kg) of 4.98 min. The AUC(0-t) ([2]; po, 2.5 mg/kg) was 3380 ng·h/mL, the Tmax ([2]; po, 2.5 mg/kg) was 30 min and the bioavailability ([2]; po, 2.5 mg/kg) was 64.8%. For the same compound, the EC50 [1] was 10 nM.
